Measured values as given in patent US9242941B2, “Alkyl, fluoroalkyl-1,4-benzodiazepinone compounds” (BRISTOL-MYERS SQUIBB COMPANY, priority 2012, dated 2016).

Assays:
human Notch 3 = test: Notch-CBF1 Transactivation Assay (Notch 3); assay type: cell-based; conditions: read-out: Notch 3 IC50; Notch-CBF1 transactivation luciferase assay in transfected HeLa cells; some values are an average of N experiments
Source text: (§1) Notch-CBF1 Transactivation Assay
(§2) The Notch-CBF1 (C-promoter binding factor I) cell based transactivation assay is based on the ability of the released Notch intracellular domain fragments (NICDs) to function as transcription factors in conjunction with CBF1 and other nuclear factors. Luciferase assays were used to measure the antagonism of Notch-CBF1 transcriptional activity. HeLa cervical cancer cells are transiently co-transfected with pCDNA3.1/Hygro plasmids containing truncated Notch 1, Notch 2, Notch 3, or Notch 4 receptors and a PGL3 luciferase reporter vector containing 4 copies of CBF1 binding site. The cells were then tested for Notch-CBF1 activity in the absence or presence of test compounds. HeLa cells, maintained in DMEM (high glucose with HEPES), 1× glutamine/penicillin/streptomycin and 10% Fetal Bovine serum, were transiently transfected in a T175 Flask (4.5×10^6 cells/flask) using the Monster Transfection Kit (Minis #MIR2906) according to manufacturers specifications. Table 13 denotes respective DNA quantity for the transfections.
(§3) Assay media (5 μL) containing test compounds in final concentrations ranging from 5 μM to 8.4×10^−5 μM (3 fold serial dilutions) were added to the cells and the cell plates were then incubated for 18 hours at 37° C. and 5% CO2. Control wells contained DMSO vehicle (total counts) or 0.5 μM of an in-house small molecule inhibitor (background counts). Duplicates were used for each sample. Luciferase activity was measured after a 20-minute incubation with 50 μl STEADY-GLO® luciferase reagents according to manufacturer's specifications (Promega, Cat. #E2550) and analyzed by Envision plate reader (PerkinElmer, Boston, Mass.).
(§4) The antagonist effect of compounds was expressed as 100×[1−(average sample−average background)/(average total−average background)] where sample is the luciferase activity in the presence of test compound, background is equal to the luciferase activity in the presence of the small molecule inhibitor control and the total is signal induced in DMSO wells.

human Notch 1 = test: Notch-CBF1 Transactivation Assay (Notch 1); assay type: cell-based; conditions: read-out: Notch 1 IC50; Notch-CBF1 transactivation luciferase assay in transfected HeLa cells; some values are an average of N experiments
Source text: as §1, §2, §3, §4

[1] = human metabolic stability half-life assay; conditions: microsomes, human liver microsomes
Procedure: Metabolic Stability Half-Life Panel
Incubation with Liver Microsomes

[2] = pH 7.4, CYP-mediated metabolic stability half life, NADPH-dependent
[3] = pH 7.4, HLM (t1/2, min), CYP-mediated (NADPH-dependent), 0.5 μM compound, 45 min time course, some values are an average of N experiments

| SMILES | IC50 (human Notch 3) [nM] | IC50 (human Notch 1) [nM] | half-life at 0.5 µM [1, 2] [min] | half-life at 0.5 µM [1, 3] [min] |
| --- | --- | --- | --- | --- |
| CCC[C@H](C(N)=O)[C@@H](CCC(F)(F)F)C(=O)N[C@H]1N=C(c2ccccc2)c2cccc(C#N)c2NC1=O [Example 32, (2R,3S)—N-((3S)-9-Cyano-2-oxo-5-phenyl-2,3-dihydro-1H-1,4-benzodiazepin-3-yl)-3-propyl-2-(3,3,3-trifluoropropyl)succinamide] | 19.7 | 8.3 | ≥ 30 | 55 |
| COc1cccc2c1NC(=O)[C@@H](NC(=O)[C@H](CCC(F)(F)F)[C@H](CC1(C)CC1)C(N)=O)N=C2c1ccccc1 [Example 33, (2R,3S)—N-((3S)-9-Methoxy-2-oxo-5-phenyl-2,3-dihydro-1H-1,4-benzodiazepin-3-yl)-3-((1-methylcyclopropyl)methyl)-2-(3,3,3-trifluoropropyl)succinamide] | 5.9 | 3.8 | ≥ 30 | 47 |
| NC(=O)[C@@H](CC1CC1)[C@@H](CCC(F)(F)F)C(=O)N[C@H]1N=C(c2ccccc2)c2ccc(Cl)c(Cl)c2NC1=O [Example 34, (2R,3S)-3-(Cyclopropylmethyl)-N-((3S)-8,9-dichloro-2-oxo-5-phenyl-2,3-dihydro-1H-1,4-benzodiazepin-3-yl)-2-(3,3,3-trifluoropropyl)succinamide] | 7.4 | 4.7 | ≥ 30 | > 120 |
| NC(=O)[C@@H](CC1CC1)[C@@H](CCC(F)(F)F)C(=O)N[C@H]1N=C(c2ccccc2)c2cccc(C(F)(F)F)c2NC1=O [Example 36, (2R,3S)-3-(Cyclopropylmethyl)-N-((3S)-2-oxo-5-phenyl-9-(trifluoromethyl)-2,3-dihydro-1H-1,4-benzodiazepin-3-yl)-2-(3,3,3-trifluoropropyl)succinamide] | 8.3 | 7.9 | ≥ 30 | > 120 |
| COc1cccc2c1NC(=O)[C@@H](NC(=O)[C@H](CCC(F)(F)F)[C@H](CC1CC1)C(N)=O)N=C2c1ccccc1 [Example 38, (2R,3S)-3-(Cyclopropylmethyl)-N-((3S)-9-methoxy-2-oxo-5-phenyl-2,3-dihydro-1H-1,4-benzodiazepin-3-yl)-2-(3,3,3-trifluoropropyl)succinamide] | 3.3 | 2.3 | ≥ 30 | 70 |
| CCC[C@H](C(N)=O)[C@@H](CCC(F)(F)F)C(=O)N[C@H]1N=C(c2ccccc2)c2ccc(Br)c(OC)c2NC1=O [Example 39, (2R,3S)—N-((3S)-8-Bromo-9-methoxy-2-oxo-5-phenyl-2,3-dihydro-1H-1,4-benzodiazepin-3-yl)-3-propyl-2-(3,3,3-trifluoropropyl)succinamide] | 12 | 13.4 | ≥ 30 | 38 |
| CCC[C@H](C(N)=O)[C@@H](CCC(F)(F)F)C(=O)N[C@H]1N=C(c2ccccc2)c2cccc(O)c2NC1=O [Example 41, (2R,3S)—N-((3S)-9-Hydroxy-2-oxo-5-phenyl-2,3-dihydro-1H-1,4-benzodiazepin-3-yl)-3-propyl-2-(3,3,3-trifluoropropyl)succinamide] | 12.4 | 9.1 | ≥ 30 | 45 |
| NC(=O)[C@@H](CC1CC1)[C@@H](CCC(F)(F)F)C(=O)N[C@H]1N=C(c2ccccc2)c2cccc(Cl)c2NC1=O [Example 42, (2R,3S)—N-((3S)-9-Chloro-2-oxo-5-phenyl-2,3-dihydro-1H-1,4-benzodiazepin-3-yl)-3-(cyclopropylmethyl)-2-(3,3,3-trifluoropropyl)succinamide] | 3.5 | 1.9 | ≥ 30 | 87 |
| CCC[C@H](C(N)=O)[C@@H](CCC(F)(F)F)C(=O)N[C@H]1N=C(c2ccccc2)c2cccc(Cl)c2NC1=O [Example 43, (2R,3S)—N-((3S)-9-Chloro-2-oxo-5-phenyl-2,3-dihydro-1H-1,4-benzodiazepin-3-yl)-3-propyl-2-(3,3,3-trifluoropropyl)succinamide] | 4.8 | 3.3 | ≥ 30 | 30 |
